Results as given in US20210379009A1, “ANTIBACTERIAL AGENT AGAINST ENTEROBACTERIUM WHICH CONTAINS EQUOL AS ACTIVE INGREDIENT” (priority 2018, published 2021).

What was measured:
Type in all cases: cell-based
[1] = tested on: Bacteroides fragilis (B. fragilis); assay: Growth inhibition on other bacterial species: Bacteroides fragilis; details: 100 μg/mL
Clostridioides difficile = assay: Inhibition of sporulation of Clostridioides difficile (spore count); details: 100 μg/mL; added to medium grown to a saturated state; from day 2; FIG. 6
Protocol: To validate the influence of equol (100 μg/mL) on the sporulation of Clostridioides difficile, equol was added to a medium in which Clostridioides difficile had grown to a saturated state, and the number of spores formed was counted.

[2] = tested on: Clostridioides perfringens (C. perfringens (Clostridium perfringens)); details: 100 μg/mL; FIG. 4
[3] = tested on: Clostridioides difficile (NAP1/027 strain); assay: Influence on form of Clostridioides difficile (Gram staining); details: 100 μg/mL; after 8-day culture; FIG. 5
Protocol: The influence of equol on the form of Clostridioides difficile (NAP1/027 strain) was validated through staining of Clostridioides difficile with Gram staining under the action of equol (100 μg/mL) in the same manner as in Example 1.

[4] = tested on: Clostridioides difficile (NAP1/027 strain); assay: Growth inhibition on Clostridioides difficile NAP1/027 strain (OD600); details: for inhibition of the growth of Clostridioides difficile versus control: FIG. 2
Protocol: Clostridioides difficile (NAP1/027 strain) was added to a medium containing equol in a concentration of 100 μg/mL, 75 μg/mL, 50 μg/mL, or 25 μg/mL (0 hour), and subsequently cultured to check the influence on the growth for 24 hours after the start of culture. The culture performed was totally under anaerobic conditions at 35° C.
Because equol dissolved in DMSO was used, a medium with addition only of DMSO was additionally subjected to measurement as a control.
The growth of the bacterium was examined by measuring the absorbance of each medium at 600 nm (OD600).
Equol is a final product generated from daidzin through daidzein and dihydrodaidzein. Inhibition of the growth of Clostridioides difficile by equol (100 μg/mL, 50 μg/mL), daidzein (50 μg/mL), and dihydrodaidzein (100 μg/mL, 50 μg/mL) was measured in the same manner as in Example 1.

[5] = tested on: Escherichia coli (E. coli); assay: Growth inhibition on other bacterial species: Escherichia coli; details: 100 μg/mL; FIG. 4

Compound | proliferation of Bacteroides fragilis ([1]; 52 hours of the test, FIG. 4) | viability of Bacteroides fragilis after transfer into a medium without equol ([1]; transferred at the end of 52 hours of the test) | number of spores formed versus control (Clostridioides difficile) | influence on growth of Clostridioides perfringens [2] | form of cells (Gram staining) versus control [3] | inhibition of the growth of Clostridioides difficile versus control ([4]; 50 μg/mL) | inhibition of the growth of Clostridioides difficile versus control ([4]; 100 μg/mL) | concentration dependence of growth inhibition ([4]; equol 25 to 100 μg/mL, FIG. 1) | growth of Clostridioides difficile (OD600) versus control ([4]; equol 100, 75, 50 or 25 μg/mL, 24 hours, anaerobic, 35° C., DMSO control, FIG. 1) | influence on growth of Escherichia coli [5]
Oc1ccc([C@H]2COc3cc(O)ccc3C2)cc1 (stereo in doubt) [equol, 4′,7-isoflavandiol] | completely no proliferation | only the growth was inhibited, without killing the bacterium | few spores | An influence was observed | forms longer and thinner than those of cells in the control | inhibited the growth of Clostridioides difficile to the same degree | an even higher degree of inhibition than them | the inhibition depended on the concentration of equol | slower than that in the control | no influence was found
O=c1c(-c2ccc(O)cc2)coc2cc(O)ccc12 [daidzein, reference compound] |  |  |  |  |  | no clear difference from the control |  |  |  | 
O=C1c2ccc(O)cc2OCC1c1ccc(O)cc1 (stereo not shown) [dihydrodaidzein, reference compound] |  |  |  |  |  | no clear difference from the control | inhibited the growth of Clostridioides difficile to the same degree |  |  | 
